{
  "source": "patent US11141374B2",
  "about": "“Natural skin care compositions and methods for treating oxidative stress and restoring skin health” (CODEX BEAUTY CORPORATION, priority 2019, dated 2021)",
  "test_system": "normal human-derived epidermal keratinocytes",
  "assay": "in-vitro thymidine dimer assay after UVB, epidermis skin model",
  "format": "cell-based",
  "details": "7 days treatment, UVB 300 mJ/cm^2; Trolox 50 ug/ml, Aristotelia chilensis 5%, Ugni molinae 4%",
  "experimental": "Leaf extracts Aristotelia chilensis and Ugni molinae were evaluated to determine their ability to prevent undesirable thymidine dimer formation upon exposure to UVB radiation. When skin is exposed to UVB radiation, thymidine bases in the DNA can absorb the UVB radiation to form thymidine dimers (also known as thymine dimers) in DNA, complicating the cell's efforts to replicate DNA and to properly function. In this experiment, an in-vitro thymidine dimer assay was performed using a skin model consisting of normal human-derived epidermal keratinocytes cultured to form a multilayered model of the human epidermis. […] The primary antibody was then detected with a secondary antibody conjugated to a fluorescent dye. The membrane was then scanned with an excitation laser and emission filter combo specific to the fluorescent dye, so that the fluorescence intensity of each sample was proportional to the amount of thymidine dimers present in the sample and a lower fluorescence intensity advantageously indicates lower levels of cellular damage from UVB radiation. The results of the thymidine dimer assay are found in Table 1, below, expressed as mean Relative Fluorescence Units (RFU)±standard deviation.",
  "data": [
    {"smiles": "Cc1c(C)c2c(c(C)c1O)CCC(C)(C(=O)O)O2", "note": "(stereo not shown) [Trolox]", "values": [
      {"measurement": "Corrected RFU (thymidine dimers), mean ± standard deviation", "result": "4.380 ± 393.00", "unit": "RFU"}
    ]}
  ]
}
